Measurements: patent publication US20100285959A1, “HERBICIDAL MIXTURES” (priority 2006, published 2010)

Tests used:
giant ragweed (AMBTR) = assay: Test 9 field trial, emerged weeds before corn planting; type: in vivo, Ambrosia trifida; details: g a.i./ha: Cpd 2 100, Glyphosate 1540, Paraquat 1150
Protocol: (§1) Corn seeds (hybrid ‘Pioneer 34M91 RR’) were planted in mid spring season, about 3.8 cm deep in a silty clay loam soil having a pH of 6.7. Plots were 9.1 m long by 3.0 m. The field was managed using no-till practices. […] Compound 2 and paraquat treatments, alone and in combination, also included a surfactant. Glyphosate, alone and with Compound 2, included ammonium sulfate in the treatment mixture. […] The effects on the weeds in the treated plots and untreated control plots were recorded 7, 14, 23, 30 and 57 days after application. Most of the weed species could not be evaluated at every timing. Corn response was only evaluated 57 days after application. […] Results are the means of the three replicates.

[1] = tested on: common lambsquarters (CHEAL); assay: as above; type: in vivo, Chenopodium album; details: 57 DAA; g a.i./ha: Cpd 2 100, Glyphosate 1540, Paraquat 1150
Protocol: as §1

[2] = tested on: smallflower buttercup (RANAB); assay: as above; type: in vivo, Ranunculus abortivus; details: g a.i./ha: Cpd 2 100, Glyphosate 1540, Paraquat 1150
Protocol: as §1

common dandelion (TAROF) = assay: as above; type: in vivo, Taraxacum officinale; details: g a.i./ha: Cpd 2 100, Glyphosate 1540, Paraquat 1150
Protocol: as §1

[3] = tested on: Pennsylvania smartweed (POLPY); assay: Test 7 field trial, preemergence; type: in vivo, Polygonum pensylvanicum
Protocol: Plots were 7.6 m long by 3.0 m wide with rows spaced 76 cm apart. Seeds were spaced 15 cm apart within the rows. The field was managed using conventional tillage practices. […] Wild radish was evaluated 14 and 28 days after application. […] Results are the means of the three replicates.

redroot pigweed (AMARE) = assay: Test 8 field trial, preemergence; type: in vivo, Amaranthus retroflexus; details: 56 DAA
From the text: Corn seeds (hybrid ‘Pioneer 31G96’) were planted in mid spring season, 3.8 cm deep in a clay loam soil having 2% organic matter and a pH of 6.6. Plots were 6.1 m long by 3.0 m wide with rows spaced 76 cm apart. Seeds were spaced 15 cm apart within the rows. The field was managed using conventional tillage practices. […] A few of the weed species could not be evaluated at every timing. […] Results are the means of the three replicates.

giant foxtail (SETFA) = assay: Test 14 field trial, preemergence, growth as percent of control; type: in vivo, Setaria faberi
From the text: Corn seeds (hybrid ‘Pioneer 31G96 RR’) were planted in mid spring season, 3.8 cm deep in a clay loam soil having 2% organic matter and a pH of 6.6. Plots were 6.1 m long by 3.0 m wide with rows spaced 76 cm apart. Seeds were spaced 15 cm apart within the rows. The field was managed using conventional tillage practices. […] Yellow nutsedge was only evaluated 19 and 28 days after application, and ivyleaf morningglory could only be evaluated 28 days after application. […] Results are the means of the three replicates. This growth inhibition data was converted to results in the form of “plant growth as a percent of control plant growth” using the calculation “100 minus growth inhibition”. […] For “growth as a percent of control” data, Colby's Equation calculates the expected additive effect of herbicidal mixtures having two active ingredients as follows:
Ga+b=GaGb/100 • wherein Ga+b is the growth as a percent of control of plants treated with the mixture expected from additive contribution of the individual components, • Ga is the observed growth as a percent of control of plants treated with the first active ingredient at the same use rate as in the mixture, and • Gb is the observed growth as a percent of control of plants treated with the second active ingredient at the same use rate as in the mixture. For mixtures having three active ingredients, Colby's Equation to calculate the expected additive effect of herbicidal mixtures is as follows:
Ga+b+c=GaGbGc/10,000 • wherein Ga and Gb are as defined above and • Ga+b+c is the growth as a percent of control of plants treated with the mixture expected from additive contribution of the individual components, and • Gc is the observed growth as a percent of control of plants treated with the third active ingredient at the same use rate as in the mixture. When these two forms of Colby's Equation are used, if the observed effects on weeds are less than the expected values, the mixture is synergistic.

common sugarcane (SACOF) = assay: Test 12 field trial, preemergence; type: in vivo, Saccharum officinarum; set-up: scale not given here; details: Cpd 2 or Cpd 1 62 g a.i./ha, Diuron 2000 g a.i./ha
From the text: In early-mid spring season, corn seeds (hybrid ‘Pioneer 3041’) were planted 5 cm deep and sugarcane nodes (variety RB-72.454) were planted 10 cm deep in separate plots in a clay soil having 2.6% organic matter and a pH of 5.6. Plots were 24 m long by 1.5 m wide with rows spaced 80 cm (corn) or 140 cm (sugarcane) apart. Corn seeds were spaced 15 cm apart and sugarcane nodes were spaced 10 cm apart within the rows. At the same time, weed seeds were broadcast over the surface of separate plots without a crop, one weed species per plot. The weed plots were rotary tilled to incorporate the weed seeds to a variety of depths. The field was managed using conventional tillage practices.

barley (HORVX) = assay: Test 30 growth chamber, postemergence; type: in vivo, Hordeum vulgare
Protocol: A growth chamber test was conducted to evaluate the effects on the plant species wheat (TRZAW, Triticum aestivum L.) and barley (HORVX, Hordeum vulgare L.) with mixtures of Compound 1 and Compound 2 with glycerol. Wheat and barley seeds were planted in a sandy loam soil having 0.9% organic matter and a pH of 6.3. […] Wheat and barley plants were treated postemergence at the two leaf growth stage for Compound 1 and at the three leaf growth stage for Compound 2. Each treatment was replicated one time. […] Plants were watered as needed. […] Colby's Equation was used to determine herbicidal effects expected from the mixtures.

[4] = g a.i./ha: Cpd 2 100, Atrazine 1680, S-Metolachlor 1870

| SMILES | AMBTR Obs (giant ragweed (AMBTR); 7 DAA) | AMBTR Obs (giant ragweed (AMBTR); 14 DAA) | AMBTR Obs (giant ragweed (AMBTR); 57 DAA) | CHEAL Obs [1] | RANAB Obs ([2]; 7 DAA) | RANAB Obs ([2]; 14 DAA) | RANAB Obs ([2]; 23 DAA) | RANAB Obs ([2]; 30 DAA) | TAROF Obs (common dandelion (TAROF); 7 DAA) | TAROF Obs (common dandelion (TAROF); 14 DAA) | TAROF Obs (common dandelion (TAROF); 23 DAA) | TAROF Obs (common dandelion (TAROF); 30 DAA) | TAROF Obs (common dandelion (TAROF); 57 DAA) | AMARE Obs (redroot pigweed (AMARE); [4]) | SACOF Obs (common sugarcane (SACOF); 15 DAA) | SACOF Obs (common sugarcane (SACOF); 29 DAA) | SACOF Obs (common sugarcane (SACOF); 48 DAA) | SACOF Obs (common sugarcane (SACOF); 61 DAA) | other results |
| --- | --- | --- | --- | --- | --- | --- | --- | --- | --- | --- | --- | --- | --- | --- | --- | --- | --- | --- | --- |
| O=C(O)CNCP(=O)(O)O [Glyphosate] | 25% | 77% | 85% | 0% | 50% | 80% | 95% | 100% | 37% | 62% | 83% | 90% | 88% |  |  |  |  |  |  |
| CCc1cccc(C)c1N(C(=O)CCl)[C@@H](C)COC [S-Metolachlor, S-metolachlor, reference compound] |  |  |  |  |  |  |  |  |  |  |  |  |  | 100% |  |  |  |  | POLPY Obs ([3]; 14 DAA, 1000 g a.i./ha): 60%; POLPY Obs ([3]; 28 DAA, 1000 g a.i./ha): 45%; POLPY Obs ([3]; 62 DAA, 1000 g a.i./ha): 10%; Obs growth % of control (giant foxtail (SETFA); 19 DAA, 1870 g a.i./ha): 7%; Obs growth % of control (giant foxtail (SETFA); 28 DAA, 1870 g a.i./ha): 5%; Obs growth % of control (giant foxtail (SETFA); 56 DAA, 1870 g a.i./ha): 1% |
| Nc1nc(C2CC2)nc(C(=O)O)c1Cl [Compound 1, 6-amino-5-chloro-2-cyclopropyl-4-pyrimidinecarboxylic acid] |  |  |  |  |  |  |  |  |  |  |  |  |  |  | 0 | 0 | 0 | 5 | HORVX Obs (barley (HORVX); 18 DAA, Cpd 1 1 g a.i./ha): 0%; HORVX Obs (barley (HORVX); 18 DAA, Cpd 1 4 g a.i./ha): 20%; HORVX Obs (barley (HORVX); 18 DAA, Cpd 1 16 g a.i./ha): 40% |
| CCNc1nc(Cl)nc(NC(C)C)n1 [Atrazine, atrazine, reference compound] |  |  |  |  |  |  |  |  |  |  |  |  |  | 100% |  |  |  |  |  |
| COC(=O)c1nc(C2CC2)nc(N)c1Cl [Compound 2, methyl 6-amino-5-chloro-2-cyclopropyl-4-pyrimidinecarboxylate] | 85% | 83% | 89% | 95% | 45% | 40% | 60% | 65% | 37% | 38% | 60% | 65% | 84% | 100% | 0 | 0 | 0 | 5 | POLPY Obs ([3]; 14 DAA, 125 g a.i./ha): 77%; POLPY Obs ([3]; 14 DAA, 250 g a.i./ha): 95%; POLPY Obs ([3]; 14 DAA, 500 g a.i./ha): 97%; POLPY Obs ([3]; 28 DAA, 125 g a.i./ha): 70%; POLPY Obs ([3]; 28 DAA, 250 g a.i./ha): 93%; POLPY Obs ([3]; 28 DAA, 500 g a.i./ha): 97%; POLPY Obs ([3]; 62 DAA, 125 g a.i./ha): 40%; POLPY Obs ([3]; 62 DAA, 500 g a.i./ha): 100%; AMARE Obs (redroot pigweed (AMARE); g a.i./ha: Cpd 2 50, S-Metolachlor 1870): 45%; AMARE Obs (redroot pigweed (AMARE); g a.i./ha: Cpd 2 150, S-Metolachlor 1870): 100%; Obs growth % of control (giant foxtail (SETFA); 19 DAA, 75 g a.i./ha): 58%; Obs growth % of control (giant foxtail (SETFA); 19 DAA, 100 g a.i./ha): 48%; Obs growth % of control (giant foxtail (SETFA); 28 DAA, 75 g a.i./ha): 68%; Obs growth % of control (giant foxtail (SETFA); 28 DAA, 100 g a.i./ha): 67%; Obs growth % of control (giant foxtail (SETFA); 56 DAA, 75 g a.i./ha): 92%; Obs growth % of control (giant foxtail (SETFA); 56 DAA, 100 g a.i./ha): 97%; HORVX Obs (barley (HORVX); 17 DAA, Cpd 2 1 g a.i./ha): 25%; HORVX Obs (barley (HORVX); 17 DAA, Cpd 2 4 g a.i./ha): 30%; HORVX Obs (barley (HORVX); 17 DAA, Cpd 2 16 g a.i./ha): 35% |
